In patent publication US6432883B1, “Methods of treating plants with glycolic acid” (Emerald BioAgriculture Corporation, priority 2000, dated 2002):
Marks after values point to notes of the source that are not given here.

Columns and labels:
Type in all cases: in vivo
Sclerotinia minor [1] = experiment: Excised lettuce leaves, post-harvest pathogen stress: disease index; conditions: for Disease Index [(severity)(% incidence)/100]: 3 days post-inoculation
Description: Waldmann's MTO dark green Grand Rapids leaf lettuce seed, lot# 15529, was purchased from Johnny's Selected Seeds, Albion, Me., and broadcast seeded into 10×20×2′ flats. Circular steel-blue blotter papers (Anchor Paper Co, St. Paul, Minn.) were fitted into disposable petri dishes. Treatments consisted of non-inoculated and inoculated groups of non-treated (NTC), water and 0.01% surfactant-blank (SB) controls and 10, 25, 75,150, 500 and 1000 ppm of glycolic acid.
(§1) Blotters were saturated with 4.5 ml sterile tap water. Individual leaves (20) were excised and placed into a treatment solution for 5 seconds or left non-treated. Excess fluid was removed from the leaf surface. These leaves were then placed singly, 1 leaf per dish and adaxial side up, on the moist blotters. Dish lids were replaced and dishes stacked, bagged and returned to the petri dish box for 24 hours dark storage at room temperature (68-72° F.).
Inoculum (Sclerotinia minor hyphal fragments and sclerotia) was grown on potato dextrose agar (PDA) plates until the sclerotia were black and hard. These were blended into a paste with non-inoculated PDA and sterile tap water. A small spot of inoculum paste containing hyphal fragments and 2-3 sclerotia was dotted onto the center of 16 of the 20 leaf pieces per treatment stack 24 hours after test substance application.
Due to the nature of Sclerotinia as a pathogen, disease is generally an all-or-nothing phenomenon. Therefore, it is necessary to assess both disease incidence and disease severity to give an accurate representation of the disease progression. Disease severity assessment was made at 3 days±2 hours post-inoculation by measuring the radius of colonized tissue in mm. Disease incidence was assessed as the presence or absence of infection (number of diseased leaves/ number of leaves tested) 100=% incidence. Multiplying the average severity by the % incidence and dividing by 100 then combined both evaluations into one assessment number and created a disease index value. The results in Table 5 below show this value for each treatment.

Sclerotinia minor [2] = experiment: Cabbage pathogen stress: disease severity rating, fresh and dry weights; conditions: for Dry Weight / Fresh Weight: cabbage under pathogen stress; for Disease Severity Rating: cabbage, 1-9 rating scale
Description: Market Prize, F1 cabbage seed, lot 88955, was purchased from Harris Seeds, Inc., Rochester, N.Y. These were grown 8 plants per 1 gallon pot, 1 pot per experimental unit and 3 experimental units per each of 3 replications. The plants were spray-treated first at 4 true leaves and again 14 days later with 8 ml per pot. The pathogen stress (Sclerotinia minor hyphal fragments and sclerotia, cultured on potato dextrose agar) was applied to the plant stems at the soil/stem interface at 4 days following the second treatment application.
Treatments consisted of non-inoculated and inoculated groups of non-treated (NTC), water and 0.05% surfactant-blank (SB) controls and 1, 5, 10, 25, 37.5 and 75 ppm of glycolic acid.
Disease assessment was made just prior to harvest by means of a 1-9 based rating scale. Each plant was harvested at the soil line for yield fresh and dry weights. The results in Table 2 below show the data for each treatment and the rating scale definitions.

Bottytis cinerea = experiment: Excised lettuce leaves, post-harvest pathogen stress: radius of colonized tissue; conditions: for Average Disease Progression: radius of colonized tissue 3 days post-inoculation
Description: Waldmann's MTO dark green Grand Rapids leaf lettuce seed, lot# 15529, was purchased from Johnny's Selected Seeds, Albion, Me., and grown 8 plants per 1 gallon pot. Circular steel-blue blotter papers (Anchor Paper Co, St. Paul, Minn.) were steam autoclaved and fitted into disposable petri dishes. […]
as §1, with “for 5-10” for “for 5”, “24 hour” for “24 hours”, “temperature (65-68°” for “temperature (68-72°”
Inoculum (Bottytis cinerea) was grown on potato dextrose agar (PDA) plates until dense conidia production was present. These were blended into a paste with non-inoculated PDA and sterile tap water. Inoculum concentration was determined by dilution plating to be 1960 cfu/ml.
A small spot of inoculum paste was dotted onto the center of 16 of the 20 leaf pieces per treatment stack 24 hours after test substance application.
Disease progression assessment was made at 3 days±2 hours post-inoculation by measuring the radius of colonized tissue in mm.

## O=C(O)CO [glycolic acid]
Sclerotinia minor [1]; 10 ppm leaf dip
  Disease Index [(severity)(% incidence)/100]: 1.2
Sclerotinia minor [1]; 25 ppm and 75 ppm, lettuce leaves, α=0.05
  disease severity versus control lettuce: statistically significant (α=0.05) decrease
Sclerotinia minor [1]; 25 ppm leaf dip
  Disease Index [(severity)(% incidence)/100]: 0.1*
Sclerotinia minor [1]; 75 ppm leaf dip
  Disease Index [(severity)(% incidence)/100]: 0.5*
Sclerotinia minor [1]; 150 ppm leaf dip
  Disease Index [(severity)(% incidence)/100]: 1.3
Sclerotinia minor [1]; 500 ppm leaf dip
  Disease Index [(severity)(% incidence)/100]: 1.1
Sclerotinia minor [1]; 1000 ppm leaf dip
  Disease Index [(severity)(% incidence)/100]: 2.0
Sclerotinia minor [2]; 1 ppm spray
  Dry Weight: 38.3 g
  Fresh Weight: 359 g
  Disease Severity Rating: 3.6
Sclerotinia minor [2]; 5 ppm spray
  Dry Weight: 39.8 g
  Fresh Weight: 346 g
  Disease Severity Rating: 3.7
Sclerotinia minor [2]; 10 ppm spray
  Dry Weight: 40.9 g
  Fresh Weight: 342 g
  Disease Severity Rating: 2.8
Sclerotinia minor [2]; 25 ppm spray
  Dry Weight: 39.1 g
  Fresh Weight: 364 g
  Disease Severity Rating: 2.2
Sclerotinia minor [2]; 37.5 and 75 ppm, α=0.05
  disease severity versus control: statistically significant (α=0.05) decrease
Sclerotinia minor [2]; 37.5 ppm
  fresh weight versus control: statistically significant increase
Sclerotinia minor [2]; 37.5 ppm spray
  Dry Weight: 39.0 g
  Fresh Weight: 381* g
  Disease Severity Rating: 1.7*
Sclerotinia minor [2]; 75 ppm
  dry weight versus control: statistically significant increase
Sclerotinia minor [2]; 75 ppm spray
  Dry Weight: 41.5* g
  Fresh Weight: 354 g
  Disease Severity Rating: 2.0*
Bottytis cinerea; 10 ppm leaf dip
  Average Disease Progression: 4.0* mm
Bottytis cinerea; 10 ppm, lettuce leaves, α=0.05
  disease severity versus control lettuce: statistically significant (α=0.05) decrease
Bottytis cinerea; 25 ppm leaf dip
  Average Disease Progression: 9.8 mm
Bottytis cinerea; 75 ppm leaf dip
  Average Disease Progression: 9.4 mm
Bottytis cinerea; 150 ppm leaf dip
  Average Disease Progression: 13.6 mm
Bottytis cinerea; 500 ppm leaf dip
  Average Disease Progression: 12.1 mm
Bottytis cinerea; 1000 ppm leaf dip
  Average Disease Progression: 11.6 mm
